Measured values as given in ChEMBL document CHEMBL1136839, “3,4-Disubstituted isothiazoles: novel potent inhibitors of VEGF receptors 1 and 2” (Bioorg Med Chem Lett, 2009).

What was measured:
[1] = biological target: Glycogen synthase kinase-3 beta (Homo sapiens) (UniProt P49841); assay: Inhibition of GSK3-beta at 10 uM by HTRF assay
[2] = biological target: Cyclin-dependent kinase 1 (Homo sapiens) (UniProt P06493); assay: Inhibition of CDK1 at 10 uM by HTRF assay
[3] = Inhibition of Bcr-Abl T315 mutant at 10 uM by HTRF assay
[4] = biological target: Epidermal growth factor receptor (Homo sapiens) (UniProt P00533); assay: Inhibition of EGFR at 10 uM by HTRF assay
[5] = biological target: Receptor-type tyrosine-protein kinase FLT3 (Homo sapiens) (UniProt P36888); assay: Inhibition of Flt3 at 10 uM by HTRF assay
[6] = biological target: Hepatocyte growth factor receptor (Homo sapiens) (UniProt P08581); assay: Inhibition of cMET at 10 uM by HTRF assay
[7] = biological target: Fibroblast growth factor receptor 1 (Homo sapiens) (UniProt P11362); assay: Inhibition of FGFR1 at 10 uM by HTRF assay
[8] = biological target: Proto-oncogene tyrosine-protein kinase Src (Homo sapiens) (UniProt P12931); assay: Inhibition of Src at 10 uM by HTRF assay
Proto-oncogene tyrosine-protein kinase Src (Homo sapiens), sequence (P12931 2-536 limits assumed): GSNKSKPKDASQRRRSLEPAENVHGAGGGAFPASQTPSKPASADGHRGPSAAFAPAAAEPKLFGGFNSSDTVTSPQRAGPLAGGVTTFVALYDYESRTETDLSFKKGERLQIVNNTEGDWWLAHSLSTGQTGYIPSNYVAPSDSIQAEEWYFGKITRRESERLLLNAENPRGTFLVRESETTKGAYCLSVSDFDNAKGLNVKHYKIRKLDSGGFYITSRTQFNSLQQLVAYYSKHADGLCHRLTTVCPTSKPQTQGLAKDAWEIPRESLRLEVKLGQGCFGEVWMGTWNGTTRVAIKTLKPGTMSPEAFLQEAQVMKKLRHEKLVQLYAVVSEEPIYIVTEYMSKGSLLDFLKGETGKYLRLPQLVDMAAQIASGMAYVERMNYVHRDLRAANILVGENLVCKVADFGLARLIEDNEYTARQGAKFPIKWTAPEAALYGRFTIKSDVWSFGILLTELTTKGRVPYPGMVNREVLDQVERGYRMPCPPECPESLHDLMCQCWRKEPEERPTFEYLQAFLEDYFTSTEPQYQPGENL

[9] = biological target: Bcr/Abl fusion protein (Homo sapiens) (UniProt P00519+P11274); assay: Inhibition of bcr-Abl at 10 uM by HTRF assay; format: protein assay
[10] = biological target: Insulin-like growth factor 1 receptor (Homo sapiens) (UniProt P08069); assay: Inhibition of IGF1R at 10 uM by HTRF assay
Insulin-like growth factor 1 receptor (Homo sapiens), sequence (P08069 31-736 limits assumed): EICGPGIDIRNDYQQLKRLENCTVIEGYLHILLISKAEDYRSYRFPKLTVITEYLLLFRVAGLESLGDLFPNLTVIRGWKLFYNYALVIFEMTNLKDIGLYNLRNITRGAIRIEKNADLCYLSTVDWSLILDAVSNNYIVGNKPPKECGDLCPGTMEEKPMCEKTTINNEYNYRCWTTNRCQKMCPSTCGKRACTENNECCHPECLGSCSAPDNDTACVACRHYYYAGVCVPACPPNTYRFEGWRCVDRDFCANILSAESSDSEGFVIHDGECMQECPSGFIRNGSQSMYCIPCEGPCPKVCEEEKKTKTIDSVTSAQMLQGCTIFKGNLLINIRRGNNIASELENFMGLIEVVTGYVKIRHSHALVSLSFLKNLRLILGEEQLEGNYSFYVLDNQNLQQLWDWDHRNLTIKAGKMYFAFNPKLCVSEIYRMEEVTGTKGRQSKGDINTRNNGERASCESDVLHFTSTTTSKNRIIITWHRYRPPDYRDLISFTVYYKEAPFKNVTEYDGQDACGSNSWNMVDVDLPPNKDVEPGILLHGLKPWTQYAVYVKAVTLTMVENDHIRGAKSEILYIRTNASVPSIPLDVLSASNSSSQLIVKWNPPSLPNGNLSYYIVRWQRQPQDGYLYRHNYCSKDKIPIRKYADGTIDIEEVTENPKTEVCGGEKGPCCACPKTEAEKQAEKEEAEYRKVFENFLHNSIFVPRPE
Insulin-like growth factor 1 receptor (Homo sapiens), sequence (P08069 741-1367 limits assumed): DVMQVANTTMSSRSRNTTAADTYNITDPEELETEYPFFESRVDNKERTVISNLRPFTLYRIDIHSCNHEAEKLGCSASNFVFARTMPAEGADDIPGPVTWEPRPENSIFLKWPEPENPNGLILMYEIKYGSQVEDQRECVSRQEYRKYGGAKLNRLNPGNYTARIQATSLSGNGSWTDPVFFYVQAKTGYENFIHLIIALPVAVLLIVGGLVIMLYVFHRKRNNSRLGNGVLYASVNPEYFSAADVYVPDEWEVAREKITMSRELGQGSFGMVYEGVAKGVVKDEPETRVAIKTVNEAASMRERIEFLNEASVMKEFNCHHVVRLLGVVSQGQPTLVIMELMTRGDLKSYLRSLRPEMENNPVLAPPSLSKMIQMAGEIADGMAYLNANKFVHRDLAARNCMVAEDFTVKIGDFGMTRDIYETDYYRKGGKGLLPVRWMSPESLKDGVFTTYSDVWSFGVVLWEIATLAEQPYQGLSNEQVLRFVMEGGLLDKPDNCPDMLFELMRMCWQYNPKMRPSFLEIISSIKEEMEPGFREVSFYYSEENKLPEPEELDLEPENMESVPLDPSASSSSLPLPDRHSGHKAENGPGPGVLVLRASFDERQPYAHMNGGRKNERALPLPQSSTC

[11] = biological target: Macrophage-stimulating protein receptor (Homo sapiens) (UniProt Q04912); assay: Inhibition of Ron at 10 uM by HTRF assay
[12] = Inhibition of PKA at 10 uM by HTRF assay
[13] = biological target: Receptor tyrosine-protein kinase erbB-2 (Homo sapiens) (UniProt P04626); assay: Inhibition of ErbB2 at 10 uM by HTRF assay
Receptor tyrosine-protein kinase erbB-2 (Homo sapiens), sequence (P04626 whole entry): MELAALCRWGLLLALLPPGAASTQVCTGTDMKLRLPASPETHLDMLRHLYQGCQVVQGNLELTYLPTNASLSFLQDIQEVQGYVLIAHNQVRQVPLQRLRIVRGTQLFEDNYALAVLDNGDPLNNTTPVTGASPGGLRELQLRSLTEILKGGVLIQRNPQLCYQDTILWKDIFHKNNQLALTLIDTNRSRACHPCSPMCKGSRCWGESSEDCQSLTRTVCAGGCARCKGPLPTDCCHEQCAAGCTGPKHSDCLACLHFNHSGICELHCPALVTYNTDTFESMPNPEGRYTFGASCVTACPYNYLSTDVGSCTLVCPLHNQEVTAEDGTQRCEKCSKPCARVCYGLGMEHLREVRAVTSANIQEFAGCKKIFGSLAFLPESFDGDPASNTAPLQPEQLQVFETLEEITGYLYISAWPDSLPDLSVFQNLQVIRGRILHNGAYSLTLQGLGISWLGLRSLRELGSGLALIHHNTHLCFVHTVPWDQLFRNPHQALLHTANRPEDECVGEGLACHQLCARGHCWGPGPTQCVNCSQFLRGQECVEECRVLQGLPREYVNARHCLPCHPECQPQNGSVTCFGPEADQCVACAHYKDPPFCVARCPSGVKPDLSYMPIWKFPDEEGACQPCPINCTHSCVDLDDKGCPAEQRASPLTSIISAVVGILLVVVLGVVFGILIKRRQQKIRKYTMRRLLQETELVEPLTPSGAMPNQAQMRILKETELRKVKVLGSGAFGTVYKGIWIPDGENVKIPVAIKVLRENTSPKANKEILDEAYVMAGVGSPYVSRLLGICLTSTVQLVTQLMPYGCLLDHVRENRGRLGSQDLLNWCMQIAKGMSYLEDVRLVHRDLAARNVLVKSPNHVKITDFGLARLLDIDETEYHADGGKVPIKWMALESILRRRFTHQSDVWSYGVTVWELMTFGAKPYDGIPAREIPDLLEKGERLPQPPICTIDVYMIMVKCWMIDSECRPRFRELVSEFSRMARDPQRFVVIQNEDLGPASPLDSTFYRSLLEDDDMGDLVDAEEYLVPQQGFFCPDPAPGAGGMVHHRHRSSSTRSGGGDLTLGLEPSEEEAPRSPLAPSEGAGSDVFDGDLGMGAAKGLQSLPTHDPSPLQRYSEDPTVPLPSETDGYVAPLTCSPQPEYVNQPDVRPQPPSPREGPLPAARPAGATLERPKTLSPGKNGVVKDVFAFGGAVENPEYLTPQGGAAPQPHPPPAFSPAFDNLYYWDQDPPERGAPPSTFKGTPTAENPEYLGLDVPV

[14] = biological target: Cyclin-dependent kinase 2 (Homo sapiens) (UniProt P24941); assay: Inhibition of CDK2 at 10 uM by HTRF assay
[15] = biological target: Insulin receptor (Homo sapiens) (UniProt P06213); assay: Inhibition of InR at 10 uM by HTRF assay
Insulin receptor (Homo sapiens), sequence (P06213 28-758 limits assumed): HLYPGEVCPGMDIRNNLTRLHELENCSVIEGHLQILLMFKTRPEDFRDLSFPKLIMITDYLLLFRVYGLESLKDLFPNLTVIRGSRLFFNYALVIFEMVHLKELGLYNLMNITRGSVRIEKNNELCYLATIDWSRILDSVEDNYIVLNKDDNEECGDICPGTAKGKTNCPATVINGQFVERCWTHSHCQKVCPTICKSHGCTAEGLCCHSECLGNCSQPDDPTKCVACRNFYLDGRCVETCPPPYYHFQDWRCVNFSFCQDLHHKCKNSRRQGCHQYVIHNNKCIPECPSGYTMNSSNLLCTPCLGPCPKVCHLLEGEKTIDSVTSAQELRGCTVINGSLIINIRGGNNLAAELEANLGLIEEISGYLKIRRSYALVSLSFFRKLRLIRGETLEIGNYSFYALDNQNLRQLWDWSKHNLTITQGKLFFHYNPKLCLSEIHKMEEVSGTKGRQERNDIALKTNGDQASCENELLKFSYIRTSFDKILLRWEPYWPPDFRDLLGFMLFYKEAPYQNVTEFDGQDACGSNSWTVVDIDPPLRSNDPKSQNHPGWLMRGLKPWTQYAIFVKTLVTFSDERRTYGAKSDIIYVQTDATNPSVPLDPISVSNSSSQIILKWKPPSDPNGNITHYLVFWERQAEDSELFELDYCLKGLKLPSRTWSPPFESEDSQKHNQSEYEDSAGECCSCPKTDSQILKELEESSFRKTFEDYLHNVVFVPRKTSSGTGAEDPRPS
Insulin receptor (Homo sapiens), sequence (P06213 763-1382 limits assumed): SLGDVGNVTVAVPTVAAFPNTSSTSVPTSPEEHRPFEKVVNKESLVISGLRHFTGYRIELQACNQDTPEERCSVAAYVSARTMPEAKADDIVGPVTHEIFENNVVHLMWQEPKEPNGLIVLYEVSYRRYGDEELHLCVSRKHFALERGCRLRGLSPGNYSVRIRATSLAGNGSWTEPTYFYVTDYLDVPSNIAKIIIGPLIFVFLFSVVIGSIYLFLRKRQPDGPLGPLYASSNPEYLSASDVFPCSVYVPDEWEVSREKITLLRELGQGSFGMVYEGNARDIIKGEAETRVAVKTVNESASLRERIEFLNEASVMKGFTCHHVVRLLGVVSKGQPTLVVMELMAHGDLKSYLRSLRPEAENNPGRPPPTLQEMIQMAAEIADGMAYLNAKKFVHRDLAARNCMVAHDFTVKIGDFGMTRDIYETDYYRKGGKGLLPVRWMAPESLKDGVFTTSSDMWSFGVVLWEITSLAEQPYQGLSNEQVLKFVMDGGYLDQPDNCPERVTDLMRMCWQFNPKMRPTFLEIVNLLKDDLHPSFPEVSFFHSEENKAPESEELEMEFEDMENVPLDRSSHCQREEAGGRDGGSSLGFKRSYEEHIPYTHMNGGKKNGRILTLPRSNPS

Glycogen synthase kinase-3 beta (Homo sapiens), sequence (P49841 whole entry, looked up): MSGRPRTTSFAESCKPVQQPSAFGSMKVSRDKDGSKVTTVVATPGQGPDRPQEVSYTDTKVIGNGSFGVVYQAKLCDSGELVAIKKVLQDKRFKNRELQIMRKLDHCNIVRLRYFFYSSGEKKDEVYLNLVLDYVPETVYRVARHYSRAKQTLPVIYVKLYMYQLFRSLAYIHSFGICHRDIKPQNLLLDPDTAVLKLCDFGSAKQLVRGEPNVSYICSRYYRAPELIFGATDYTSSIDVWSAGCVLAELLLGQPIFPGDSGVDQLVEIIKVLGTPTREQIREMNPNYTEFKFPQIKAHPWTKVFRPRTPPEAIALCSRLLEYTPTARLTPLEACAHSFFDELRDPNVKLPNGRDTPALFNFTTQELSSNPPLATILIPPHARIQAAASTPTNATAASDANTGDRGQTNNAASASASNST

SMILES | inhibition [1] [%] | inhibition [2] [%] | inhibition [3] [%] | inhibition [4] [%] | inhibition [5] [%] | inhibition [6] [%] | inhibition [7] [%] | inhibition [8] [%] | inhibition [9] [%] | inhibition [10] [%] | inhibition [11] [%] | inhibition [12] [%] | inhibition [13] [%] | inhibition [14] [%] | inhibition [15] [%]
O=C(Nc1ccc2[nH]ncc2c1)c1nscc1NCc1ccncc1 | < 30 | < 30 | < 30 | < 30 | < 30 | < 30 | < 30 | < 30 | < 30 | < 30 | < 30 | < 30 | < 30 | < 30 | < 30
Cc1ccc(NC(=O)c2nscc2NCc2ccncc2)c(F)c1 | < 30 | < 30 | < 30 | < 30 | < 30 | < 30 | < 30 | < 30 | < 30 | < 30 | < 30 | < 30 | < 30 | < 30 | < 30
O=C(Nc1ccccc1Br)c1nscc1NCc1ccncc1 | < 30 | < 30 | < 30 | < 30 | < 30 | < 30 | < 30 | < 30 | < 30 | < 30 | < 30 | < 30 | < 30 | < 30 | < 30
O=C(Nc1cccc(Br)c1)c1nscc1NCc1cnoc1 | < 30 | < 30 | < 30 | < 30 | < 30 | < 30 | < 30 | < 30 | < 30 | < 30 | < 30 | < 30 | < 30 | < 30 | < 30
O=C(Nc1cccc(C(F)(F)F)c1)c1nscc1NCc1ccc(F)c(F)c1 | < 30 | < 30 | < 30 | < 30 | < 30 | < 30 | < 30 | < 30 | < 30 | < 30 | < 30 | < 30 | < 30 | < 30 | < 30
Cc1cc(NC(=O)c2nscc2NCc2ccncc2)ccc1C(F)(F)F | < 30 | < 30 | < 30 | < 30 | < 30 | < 30 | < 30 | < 30 | < 30 | < 30 | < 30 | < 30 | < 30 | < 30 | < 30
O=C(Nc1ccc(Cl)cc1)c1nscc1NCc1ccncc1 | < 30 | < 30 | < 30 | < 30 | < 30 | < 30 | < 30 | < 30 | < 30 | < 30 | < 30 | < 30 | < 30 | < 30 | < 30

Results, then the compound that gave them:

inhibition [1] [%] | inhibition [2] [%] | inhibition [3] [%] | inhibition [4] [%] | inhibition [5] [%] | inhibition [6] [%] | inhibition [7] [%] | inhibition [8] [%] | inhibition [9] [%] | inhibition [10] [%] | inhibition [11] [%] | inhibition [12] [%] | inhibition [13] [%] | inhibition [14] [%] | inhibition [15] [%] | SMILES
< 30 | < 30 | < 30 | < 30 | < 30 | < 30 | < 30 | < 30 | < 30 | < 30 | < 30 | < 30 | < 30 | < 30 | < 30 | O=C(Nc1ccc(C(F)(F)F)cc1)c1nscc1NCc1ccccn1
< 30 | < 30 | < 30 | < 30 | < 30 | < 30 | < 30 | < 30 | < 30 | < 30 | < 30 | < 30 | < 30 | < 30 | < 30 | O=C(Nc1ccc(OC(F)(F)F)cc1)c1nscc1NCc1ccncc1
< 30 | < 30 | < 30 | < 30 | < 30 | < 30 | < 30 | < 30 | < 30 | < 30 | < 30 | < 30 | < 30 | < 30 | < 30 | O=C(Nc1cccc(C(F)(F)F)c1)c1nscc1NCc1cccnc1
< 30 | < 30 | < 30 | < 30 | < 30 | < 30 | < 30 | < 30 | < 30 | < 30 | < 30 | < 30 | < 30 | < 30 | < 30 | O=C(Nc1ccc(C(F)(F)F)cc1)c1nscc1NCc1cccnc1
< 30 | < 30 | < 30 | < 30 | < 30 | < 30 | < 30 | < 30 | < 30 | < 30 | < 30 | < 30 | < 30 | < 30 | < 30 | O=C(Nc1ccc(C(F)(F)F)cc1)c1nscc1NCc1ccncc1
< 30 | < 30 | < 30 | < 30 | < 30 | < 30 | < 30 | < 30 | < 30 | < 30 | < 30 | < 30 | < 30 | < 30 | < 30 | CC(C)(C)c1ccc(NC(=O)c2nscc2NCc2ccncc2)cc1
